Reference: patent publication US20230041334A1, “METHODS AND COMPOSITIONS FOR SMOKING CESSATION” (BEHAVIORAL DIAGNOSTICS, LLC, priority 2019, published 2023)

Assays:
Format in all cases: in vivo, human
[1] = test system: Smokers interested in stopping smoking; test: Diffusing capacity of the lung for carbon monoxide (DLCO) in the sildenafil trial; conditions: 20 mg/day
Method: (§1) Smokers interested in stopping smoking were imaged using a dual energy computerized tomography (DECT) protocol to determine baseline lung density and perfusion, then randomized to receive either 20 mg of sildenafil or placebo each day. Subjects were then followed each month for three months (i.e., 30, 60 and 90 days) to asses changes in lung density via DECT and alterations in the diffusing capacity of the lung for carbon monoxide (DLCO) (e.g., improved gas exchange) in conjunction with the determination of the level of smoking cessation by means of serum cotinine levels. As per standard protocol, the research team was blinded to treatment group until the subject had exited the trial and DECT image analysis was completed. Importantly, because serum cotinine levels were used to determine smoking cessation status, subjects were not allowed to use nicotine replacement therapy. However, in order to encourage the likelihood of smoking cessation, subjects were given incentive-based programming.

[2] = test system: Smokers interested in stopping smoking; test: Randomized placebo-controlled sildenafil smoking cessation trial with incentive-based programming; cessation determined by serum cotinine
Method: as §1
In this paradigm, subjects are financially rewarded for smoking cessation (see, for example, Alford et al., 2010, PNAS USA, 107:7485-90; Iyer et al., 2016, Am. J. Resp. Crit. Care Med., 193:652-61).
The results were analyzed from the first 48 subjects who enrolled in the study. Briefly, the subjects in the cohort were largely of European ancestry, and the cohort was evenly balanced between males and females, with subjects of both genders tending to be between 30 and 60 years of age. As evidenced by their pre-experiment serum cotinine levels, they also tended to be moderate to heavy smokers.
In order to qualify for the financial incentive of $400, the subjects had to complete all 4 visits (intake and 3 follow-up visits at 30, 60 and 90 days) and had to quit smoking as evidenced by serum cotinine levels. In total, of the first 48 subjects enrolled in the study, 9 subjects completed just the intake, 7 subjects participated in both the intake and first visit, and 31 subjects completed all 4 visits in the study (Table 3). Data from one subject who dropped immediately from the study is not available.

[3] = test system: Smokers interested in stopping smoking; test: Lung density (inflammation) by dual energy computerized tomography (DECT) in the sildenafil trial; conditions: 20 mg/day
Method: as §1

[4] = group who successfully stopped smoking for 90 days on sildenafil
[5] = sildenafil without smoking cessation

With `CCCc1nn(C)c2c(=O)[nH]c(-c3cc(S(=O)(=O)N4CCN(C)CC4)ccc3OCC)nc12` [Sildenafil, sildenafil] the “Change in DLCO” value [1, 4] was “improvement in DLCO”, the “Change in DLCO” value [1, 5] was “no significant change” and the “Cessation: <50% reduction of cotinine (number of subjects)” value ([2]; 20 mg sildenafil each day, N=24) was 3. For the same compound, the “Cessation: Visits with <2 ng/ml cotinine (number of visits)” value ([2]; 20 mg sildenafil each day, N=24, 30-, 60- and 90-day visits) was 36, the “Cessation: Quit at 90 days (number of subjects)” value ([2]; 20 mg sildenafil each day, N=24, by serum cotinine) was 12 and the “Follow-up visits with negative serum cotinine values (<2 ng/ml)” value ([2]; 20 mg/day, 30-, 60- and 90-day visits, vs. placebo p<0.002, Exact Test) was 36 of 72. The “Females having achieved abstinence at 90 days (negative serum cotinine)” value ([2]; 20 mg/day, females) was 6, the “Full or partial response of treatment (≥average 50% reduction of intake cotinine levels compared to average of 30-, 60- and 90-day visits) (subjects)” value ([2]; 20 mg/day, intention to treat, vs. placebo p<0.02 Exact Test) was 15 of 24 and the “Complete cessation (subjects)” value ([2]; 20 mg/day, intention to treat, vs. placebo p<0.09, Exact Test) was 12 of 24. For the same compound, the “Males having achieved abstinence at 90 days (negative serum cotinine)” value ([2]; 20 mg/day, males) was 6, the “Change in lung density (inflammation)” value [3, 4] was “significant loss of lung density” and the “Change in lung density (inflammation)” value [3, 5] was “no significant change”.
